Here are results for 25 molecules from patent publication US20070299079A1, “4-AMINO-PYRIDO[3,2-e]PYRAZINES, THEIR USE AS INHIBITORS OF PHOSPHODIESTERASE 10, AND PROCESSES FOR PREPARING THEM” (priority 2006, published 2007).

pIC50: −log10 of the molar value.

The target in the first series is T1, PDE10 from rat striatum (Rattus norvegicus, UniProt Q9QYJ6).
T1 construct: 0.5 g of the isolated and frozen striatum was homogenised; from tissue; host or cells: striatum of male Wistar rats, anion-exchange FPLC fractions
T1 sequence (Q9QYJ6 1-794): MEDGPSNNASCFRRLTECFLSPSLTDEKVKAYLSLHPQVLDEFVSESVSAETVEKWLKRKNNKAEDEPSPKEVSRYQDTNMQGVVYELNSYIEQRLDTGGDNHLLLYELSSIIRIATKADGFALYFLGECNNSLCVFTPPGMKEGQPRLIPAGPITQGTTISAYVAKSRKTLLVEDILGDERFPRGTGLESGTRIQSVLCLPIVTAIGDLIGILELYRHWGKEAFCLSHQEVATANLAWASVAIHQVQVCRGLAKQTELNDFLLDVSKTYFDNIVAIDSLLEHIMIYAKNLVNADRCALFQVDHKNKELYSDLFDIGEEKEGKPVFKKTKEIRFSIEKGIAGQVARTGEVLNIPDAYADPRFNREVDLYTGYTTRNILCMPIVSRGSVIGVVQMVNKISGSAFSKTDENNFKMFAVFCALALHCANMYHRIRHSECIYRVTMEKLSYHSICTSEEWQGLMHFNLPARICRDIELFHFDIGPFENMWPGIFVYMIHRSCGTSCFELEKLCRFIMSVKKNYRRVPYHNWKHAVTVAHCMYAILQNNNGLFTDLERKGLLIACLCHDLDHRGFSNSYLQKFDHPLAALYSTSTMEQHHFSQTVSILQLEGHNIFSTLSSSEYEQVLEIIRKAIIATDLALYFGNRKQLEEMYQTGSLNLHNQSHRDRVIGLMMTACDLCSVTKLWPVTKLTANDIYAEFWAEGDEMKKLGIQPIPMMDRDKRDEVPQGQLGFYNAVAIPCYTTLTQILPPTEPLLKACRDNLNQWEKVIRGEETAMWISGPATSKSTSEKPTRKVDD
Briefly: Inhibition of PDE10 from rat striatum. The format is biochemical.
Details: not given
Here is the method: Phosphodiesterase isoenzyme 10 (PDE10) activity was determined in preparations of rat, pig and guinea pig striatum respectively. Striatum from male Wistar rats (180-200 g), male hybrid pigs (150 kg) and male guinea pigs (CRL (HA), 500 g) respectively were collected and frozen at −70° C.
For the enzymatic testing of PDE10 activity 0.5 g of the isolated and frozen striatum was homogenised in 10 ml 50 mM Tris/Mg-buffer at 4° C. and centrifuged for one hour at 100000 g.
Nonspecific activity was tested without the enzyme. […] For determination of IC50 values the Hill-plot, 2-parameter-model, was used.
For the molecule `COc1ccc(Cc2nccc3cc(OC)c(OC)cc23)cc1OC` [Papaverine, reference compound], the pIC50 (usually the negative decadic logarithm of the IC50, by convention in mol/L) was 6.85.

The series is the same for the next values; noted with them: rat striatum preparation, 0.1 μM [3H]-cAMP, 37° C., 30 minutes; read-out: Inhibition of PDE10 from rat IC50.
Regarding `COc1ccc2nc(Cl)c3cnc(C(C)C)n3c2n1` [Intermediate A14], the pIC50 was 6.63.

The same series, now with this note: substrate Km, rat striatum.
As to `Nc1nc2c(ncn2[C@@H]2O[C@@H]3COP(=O)(O)O[C@H]3[C@H]2O)c(=O)[nH]1` [cGMP], the Km (usually the concentration of substrate that gives half-maximal velocity) stood at 1.8 µM.

The subject of another series is MK-801-induced hyperactivity and stereotyped sniffing. Kind of series: MK-801-induced hyperactivity and stereotyped sniffing, animal model of psychosis. The format is in vivo, rat. To be noted: female Wistar rats, p.o. 30 min prior to test, MK-801 0.1 mg/kg i.p., activity recorded 1 h. Here is the method: Female Wistar rats (Crl: (WI) BR, Charles River, Sulzfeld, Germany) weighing 150 to 180 g were used for the MK-801-induced psychosis. Animals were housed under standard conditions in groups of five on a 12 h light/dark cycle (light on at 0600 h) with ad libitum access to food (Pellets, ssniff M/R 15, Spezialdiät GmbH, Soest/Westfalen) and water.
MK-801 (dizocilpine, MW 337.37) was obtained by Tocris, distributed by Biotrend Chemikalien GmbH, Köln, Germany.
Hydroxyethylcellulose was solved in distilled water.
MK-801 was dissolved in saline so that an administration volume of 0.5 ml/100 g was reached. The suspensions and solution were placed on a magnetic stirrer before and during dosing procedures.
The behaviour induced by the NMDA antagonist MK-801 is generally accepted as a rat model of psychosis. MK-801 induces stereotyped sniffing and hyperactivity in rats after intraperitoneal administration.
Locomotor activity of the rats was recorded by the MotiTest Apparatus (TSE, Bad Homburg, Germany). The test area consisted of a squared arena (45×45 cm) with protective plexiglass walls (20 cm of height) where rats could freely move. Horizontal movements were recorded by 32 infrared photocells arranged along the bottom of each wall of the arena. Activity [sec] was measured by the computer program “ActiMot” (TSE, Bad Homburg, Germany).
Stereotyped sniffing was scored by the experimenter every five minutes for one hour (12 intervals) according to the method described by Andiné et al. (1999). The scores of the 12 intervals were summed up at the end of the experiment.
The day of experiment the female rats were placed in the laboratory and received the test compound or vehicle at the appropriate time prior to test. MK-801 0.1 mg/kg was intraperitoneally administered 10 minutes prior to test.
At the beginning of the test the rats were placed in the centre of the squared arena of the MotiTest apparatus. Behaviour of the rats was recorded for one hour. After each run animals were removed and the boxes thoroughly cleaned and dried.
Results were analysed by one way analysis of variance (ANOVA). Tukey test was used for individual comparison. P<0.05 was regarded as significant.
MK-801 at 0.1 mg/kg i.p. was administered 10 min before testing. […] Activity and stereotyped sniffing was recorded for 1 h. Co=control without MK-801 stimulation, Cs=control with MK-801 stimulation. Significant to MK-801 stimulated control (=Cs): * p<0.05, *** p<0.001.
With “4-amino-1-(2-chloro-phenyl)-8-methoxy-3-methyl-imidazo[1,5-a]pyrido[3,2-e]pyrazine [Example 11]”, the “Dose from which MK-801-induced hyperactivity is significantly reversed” value is no less than 0.5 mg/kg.
As for “4-amino-8-methoxy-3-methyl-1-propyl-imidazo[1,5-a]pyrido[3,2-e]pyrazine [Example 1]”, the “Dose from which MK-801-induced hyperactivity is significantly reversed” value was no less than 10 mg/kg.

Still in this series, the particulars now being: female Wistar rats, p.o. 30 min prior to test, MK-801 0.1 mg/kg i.p., sniffing scored 1 h.
On to “4-amino-1-(2-chloro-phenyl)-8-methoxy-3-methyl-imidazo[1,5-a]pyrido[3,2-e]pyrazine [Example 11]”, for which the “Dose from which MK-801-induced stereotyped sniffing is significantly reversed” value is given as no less than 0.5 mg/kg.
With “4-amino-8-methoxy-3-methyl-1-propyl-imidazo[1,5-a]pyrido[3,2-e]pyrazine [Example 1]”, the “Dose from which MK-801-induced stereotyped sniffing is significantly reversed” value was no less than 10 mg/kg.

System in a further series: not given
Assay: not given
Details: not given
On to `CCCN1CC(C)=C(NC2CCCC2)C2=C1N1CN(OC)C=C1C=N2` [Example 23, 4-(N-cyclopentyl-amino)-8-methoxy-3-methyl-1-propyl-imidazo[1,5-a]pyrido[3,2-e]pyrazine], for which the melting point (in general, the temperature, or range, at which the solid turns liquid) lay in the range of 77 to 80 °C.
`CCCN1CC(C)=C(N(C)C)C2=C1N1CN(OC)C=C1C=N2` [Example 19, 4-(N,N-dimethyl-amino)-8-methoxy-3-methyl-1-propyl-imidazo[1,5-a]pyrido[3,2-e]pyrazine] showed a melting point of 93 to 95 °C.
The molecule `CCN1CC(C)=C(NC2CCCC2)C2=C1N1CN(OC)C=C1C=N2` [Example 22, 4-(N-cyclopentyl-amino)-1-ethyl-8-methoxy-3-methyl-imidazo[1,5-a]pyrido[3,2-e]pyrazine] had a melting point of 93 to 95 °C.
Molecule `CCCN1CC(C)=C(NC)C2=C1N1CN(OC)C=C1C=N2` [Example 16, 4-(N-methyl-amino)-8-methoxy-3-methyl-1-propyl-imidazo[1,5-a]pyrido[3,2-e]pyrazine] yielded a melting point of 111 to 113 °C.
In turn, `CON1C=C2C=Nc3c(ncc(-c4ccccc4)c3N)N2C1` [Example 15, 4-amino-8-methoxy-3-phenyl-imidazo[1,5-a]pyrido[3,2-e]pyrazine] came in with a melting point of 252 to 253 °C.
Molecule `CCCN1CC(C)=C(NCC)C2=C1N1CN(OC)C=C1C=N2` [Example 17, 4-(N-ethyl-amino)-8-methoxy-3-methyl-1-propyl-imidazo[1,5-a]pyrido[3,2-e]pyrazine] gave a melting point of 140 to 142 °C.
Consider `CCN1CC(C)=C(N2CCOCC2)C2=C1N1CN(OC)C=C1C=N2` [Example 24, 1-ethyl-8-methoxy-3-methyl-4-morpholino-imidazo[1,5-a]pyrido[3,2-e]pyrazine], for which the melting point lay within 132 to 133 °C.
Take `CCN1CC(C)=C(N(C(C)=O)C(C)=O)C2=C1N1CN(OC)C=C1C=N2` [Example 41, 4-(N,N-diacetyl-amino)-1-ethyl-8-methoxy-3-methyl-imidazo[1,5-a]pyrido[3,2-e]pyrazine]: the melting point fell in the range of 135 to 136 °C.
The same measure, in the same setting: the value for `CCCN1CC(C)=C(NC(C)=O)C2=C1N1CN(OC)C=C1C=N2` [Example 38, 4-(N-acetyl-amino)-8-methoxy-3-methyl-1-propyl-imidazo[1,5-a]pyrido[3,2-e]pyrazine] was 210 to 213 °C; that for `CCN1CC(C)=C(N2CCN(c3ccccc3)CC2)C2=C1N1CN(OC)C=C1C=N2` was 224 to 227 °C.
Molecule `CON1C=C2C=NC3=C(N(CCC(F)(F)F)CC(C)=C3N)N2C1` [Example 8, 4-amino-8-methoxy-3-methyl-1-(3,3,3-trifluoropropyl)-imidazo[1,5-a]pyrido[3,2-e]pyrazine] gave a melting point of 273 to 276 °C.
The same measure, in the same setting: for `CCCN1CC(C)=C(n2ccnn2)C2=C1N1CN(OC)C=C1C=N2` [Example 32, 8-methoxy-3-methyl-1-propyl-4-(1,2,3-triazol-1-yl)-imidazo[1,5-a]pyrido[3,2-e]pyrazine] the value was 218 to 220 °C; for `CCCN1CC(C)=C(N(C(C)=O)C(C)=O)C2=C1N1CN(OC)C=C1C=N2` [Example 39, 4-(N,N-diacetyl-amino)-8-methoxy-3-methyl-1-propyl-imidazo[1,5-a]pyrido[3,2-e]pyrazine], 135 to 138 °C; for `CCCCNC1=C(C)CN(CC)C2=C1N=CC1=CN(OC)CN12` [Example 20, 4-(N-butyl-amino)-1-ethyl-8-methoxy-3-methyl-imidazo[1,5-a]pyrido[3,2-e]pyrazine], 62 to 65 °C.
Still for that read-out and setting: the value for `CCN1CC(C)=C(NCc2ccccc2)C2=C1N1CN(OC)C=C1C=N2` [Example 21, 4-(N-benzyl-amino)-1-ethyl-8-methoxy-3-methyl-imidazo[1,5-a]pyrido[3,2-e]pyrazine] was 127 to 128 °C.

For a further series, the target named is T2, PDE10 from pig striatum (Sus scrofa, UniProt A0A287B941).
Assay: not given
Details: not given
For the molecule “8-methoxy-3-methyl-4-(2-methyl-imidazol-1-yl)-1-propyl-imidazo[1,5-a]pyrido[3,2-e]pyrazine [Example 34]”, the pIC50 was 6.40.
On the same count and under the same terms, the value for “8-methoxy-3-methyl-1-propyl-4-pyrrolidino-imidazo[1,5-a]pyrido[3,2-e]pyrazine [Example 26]” was 6.86.
The same measure, in the same setting: the value for “8-methoxy-3-methyl-1-propyl-4-(1,2,4-triazol-1-yl)-imidazo[1,5-a]pyrido[3,2-e]pyrazine [Example 33]” was 7.60.
Molecule “8-methoxy-3-methyl-1-propyl-4-(pyrazol-1-yl)-imidazo[1,5-a]pyrido[3,2-e]pyrazine hydro chloride [Example 30]” showed a pIC50 of 6.81.
The same measure, in the same setting: for “8-methoxy-3-methyl-4-piperidino-1-propyl-imidazo[1,5-a]pyrido[3,2-e]pyrazine [Example 27]” the value was 6.52.

For a further series, the target named is T2, PDE10 from pig striatum. Kind of series: Inhibition of PDE10 from pig striatum. The note with it: read-out: Km value of the substrate for PDE10 from pig striatum.
Experimental: For the enzymatic testing of PDE10 activity 0.5 g of the isolated and frozen striatum was homogenised in 10 ml 50 mM Tris/Mg-buffer at 4° C. and centrifuged for one hour at 100000 g. The supernatant is called the cytosolic fraction and was removed and stored on ice. The pellet was resuspended in the same buffer, but containing 1% Triton and incubated for 45 min at 4° C. Both fractions were independently applied onto a 5 ml Hi Trap™ QHP column at the Äkta-FPLC. After washing the columns the bound PDE protein was eluted with an increasing sodium chloride gradient (0 mM-500 mM sodium chloride) in 50 mM Tris/Mg-buffer at 4° C. for the cytosolic fraction and in the presence of 1% Triton for the membrane fraction. […] The fractions with PDE10-activity were pooled and frozen in aliquots until use at −20° C.
PDE10 activity was determined in a one step procedure in microtiterplates. […] Nonspecific activity was tested without the enzyme. The reaction was initiated by addition of the substrate solution and was carried out at 37° C. for 30 minutes. Enzymatic activity was stopped by addition of 25 μl YSi—SPA-beads (Amersham-Pharmacia). One hour later the mixture was measured in a liquid scintillation counter for microtiterplates (Microbeta Trilux). To pipette the incubation mixture a robot Biomek (Fa. Beckman) is used. […] For determination of IC50 values the Hill-plot, 2-parameter-model, was used.
Consider `Nc1nc2c(ncn2[C@@H]2O[C@@H]3COP(=O)(O)O[C@H]3[C@H]2O)c(=O)[nH]1` [cGMP], for which the Km came out at 2.2 µM.
